Reference: patent publication US11963995B2, “Methods comprising desmopressin” (Ferring B.V., priority 2008, dated 2024)

Test system: adult patients with nocturia
Assay: Change in urine volume (nocturnal, total) from baseline to Day 28 (Part I)
Type: in vivo, human
Conditions: for Change from baseline to final visit (Day 28) of nocturnal urine volume, median / Change from baseline to final visit (Day 28) of nocturnal urine volume, mean: ITT, Part I; for median decrease of nocturnal urine volume compared to baseline before treatment: Day 28
Description: As used herein, the term “nocturnal urine” refers to the total urine volume from 5 minutes after bedtime until rising in the morning, including the first void within 30 minutes of rising.
All treatments were administered orally once per night approximately 1 hour prior to bedtime; subjects were instructed to limit their fluid intake prior to drug self-administration. […] Randomization was to be stratified by age (<65, ≥65 years) and by the absence/presence of nocturnal polyuria, defined as a ratio of nighttime urine volume/24-hour urine volume 33%. To achieve the desired number of subjects within each stratum, enrollment of subjects in a particular stratum (age and/or presence/absence of nocturnal polyuria) could be halted. If this was necessary, all investigative sites were to be informed in writing at least 1 week in advance to stop screening in a population of subjects.
Changes in urine volume from baseline to the end of Day 28 were also assessed and included herein.
Missing values concerning number of nocturnal voids at Day 8, Day 15, Day 22, and Day 28 in Part I were imputed using last observation carried forward (LOCF). Missing values concerning sleep disturbance and urine volume (for average 24-hour urine volume and average nocturnal urine volume) were not imputed.

[1] = 10 ug, females over 50 years of age
[2] = 25 ug, females over 50 years of age
[3] = 50 ug, females over 50 years of age
[4] = 100 ug, females over 50 years of age
[5] = all males with monitoring, 10 ug dose
[6] = all males with monitoring, 25 ug dose
[7] = all males with monitoring, 50 ug dose
[8] = all males with monitoring, 100 ug dose
[9] = females over 65 years of age, 10 ug dose
[10] = females over 65 years of age, 25 ug dose
[11] = females over 65 years of age, 50 ug dose
[12] = females over 65 years of age, 100 ug dose

Compound: NC(=O)CC[C@@H]1NC(=O)[C@H](Cc2ccccc2)NC(=O)[C@H](Cc2ccc(O)cc2)NC(=O)CCSSC[C@@H](C(=O)N2CCC[C@H]2C(=O)N[C@H](CCCN=C(N)N)C(=O)NCC(N)=O)NC(=O)[C@H](CC(N)=O)NC1=O [desmopressin]
- Change from baseline to final visit (Day 28) of nocturnal urine volume, median (10 ug, all females): -179 mL
- median decrease of nocturnal urine volume compared to baseline before treatment (10 μg, all groups): 150 mL
- Change from baseline to final visit (Day 28) of nocturnal urine volume, mean (10 ug, all groups): -164 mL
- Change from baseline to final visit (Day 28) of nocturnal urine volume, median (10 ug, all groups): -150 mL
- median decrease of nocturnal urine volume compared to baseline before treatment (10 μg, females over 50 years of age): 150 mL
- Change from baseline to final visit (Day 28) of nocturnal urine volume, mean [1]: -197 mL
- Change from baseline to final visit (Day 28) of nocturnal urine volume, median [1]: -150 mL
- median decrease of nocturnal urine volume compared to baseline before treatment (25 μg, all females): 298 mL
- Change from baseline to final visit (Day 28) of nocturnal urine volume, mean (25 ug, all females): -307 mL
- Change from baseline to final visit (Day 28) of nocturnal urine volume, median (25 ug, all females): -298 mL
- Change from baseline to final visit (Day 28) of nocturnal urine volume, mean (25 ug, all groups): -224 mL
- Change from baseline to final visit (Day 28) of nocturnal urine volume, median (25 ug, all groups): -233 mL
- median decrease of nocturnal urine volume compared to baseline before treatment (25 μg, females over 50 years of age): 383 mL
- Change from baseline to final visit (Day 28) of nocturnal urine volume, mean [2]: -356 mL
- Change from baseline to final visit (Day 28) of nocturnal urine volume, median [2]: -383 mL
- median decrease of nocturnal urine volume compared to baseline before treatment (25 μg, females over 65 years of age): 383 mL
- Change from baseline to final visit (Day 28) of nocturnal urine volume, mean (50 ug, all females): -257 mL
- Change from baseline to final visit (Day 28) of nocturnal urine volume, median (50 ug, all females): -204 mL
- Change from baseline to final visit (Day 28) of nocturnal urine volume, mean (50 ug, all groups): -272 mL
- Change from baseline to final visit (Day 28) of nocturnal urine volume, median (50 ug, all groups): -233 mL
- Change from baseline to final visit (Day 28) of nocturnal urine volume, mean [3]: -249 mL
- Change from baseline to final visit (Day 28) of nocturnal urine volume, median [3]: -196 mL
- Change from baseline to final visit (Day 28) of nocturnal urine volume, mean (100 ug, all females): -321 mL
- Change from baseline to final visit (Day 28) of nocturnal urine volume, median (100 ug, all females): -283 mL
- Change from baseline to final visit (Day 28) of nocturnal urine volume, mean (100 ug, all groups): -312 mL
- Change from baseline to final visit (Day 28) of nocturnal urine volume, median (100 ug, all groups): -283 mL
- Change from baseline to final visit (Day 28) of nocturnal urine volume, mean [4]: -317 mL
- Change from baseline to final visit (Day 28) of nocturnal urine volume, median [4]: -275 mL
- median decrease of nocturnal urine volume compared to baseline before treatment (100 μg, males with monitoring): 264 mL
- Change from baseline to final visit (Day 28) of nocturnal urine volume, mean [5]: -122 mL
- Change from baseline to final visit (Day 28) of nocturnal urine volume, median [5]: -83 mL
- Change from baseline to final visit (Day 28) of nocturnal urine volume, mean [6]: -146 mL
- Change from baseline to final visit (Day 28) of nocturnal urine volume, median [6]: -167 mL
- Change from baseline to final visit (Day 28) of nocturnal urine volume, mean [7]: -286 mL
- Change from baseline to final visit (Day 28) of nocturnal urine volume, median [7]: -235 mL
- Change from baseline to final visit (Day 28) of nocturnal urine volume, mean [8]: -296 mL
- Change from baseline to final visit (Day 28) of nocturnal urine volume, median [8]: -264 mL
- Change from baseline to final visit (Day 28) of nocturnal urine volume, mean (all males, 10 ug dose): -125 mL
- Change from baseline to final visit (Day 28) of nocturnal urine volume, median (all males, 10 ug dose): -117 mL
- Change from baseline to final visit (Day 28) of nocturnal urine volume, mean (all males, 25 ug dose): -162 mL
- Change from baseline to final visit (Day 28) of nocturnal urine volume, median (all males, 25 ug dose): -200 mL
- Change from baseline to final visit (Day 28) of nocturnal urine volume, mean (all males, 50 ug dose): -286 mL
- Change from baseline to final visit (Day 28) of nocturnal urine volume, median (all males, 50 ug dose): -246 mL
- Change from baseline to final visit (Day 28) of nocturnal urine volume, mean (all males, 100 ug dose): -306 mL
- Change from baseline to final visit (Day 28) of nocturnal urine volume, median (all males, 100 ug dose): -270 mL
- Change from baseline to final visit (Day 28) of nocturnal urine volume, mean [9]: -91 mL
- Change from baseline to final visit (Day 28) of nocturnal urine volume, median [9]: -54 mL
- Change from baseline to final visit (Day 28) of nocturnal urine volume, mean [10]: -372 mL
- Change from baseline to final visit (Day 28) of nocturnal urine volume, median [10]: -383 mL
- Change from baseline to final visit (Day 28) of nocturnal urine volume, mean [11]: -208 mL
- Change from baseline to final visit (Day 28) of nocturnal urine volume, median [11]: -203 mL
- Change from baseline to final visit (Day 28) of nocturnal urine volume, mean [12]: -323 mL
- Change from baseline to final visit (Day 28) of nocturnal urine volume, median [12]: -285 mL
